Reference: PubChem BioAssay AID720587 (Broad Institute, 2013)
Calls of active or inactive are those of the source.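 How the source made its calls: active means fitted curve reaches -35% activity change at a concentration below twice the top valid dose tested; inactive means the rest, including effects opposite to the expected direction.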

Test: A673 Ewing sarcoma viability loss – cell-based, CellTiter-Glo luminescence, cherry-pick retest, confirmation (AID 720587)
Conditions: A673 Ewing sarcoma viability, CellTiter-Glo ATP luminescence, 72 h; at 23.5 µM (top of the series)
With `O=S(=O)(c1ccc(F)cc1)N1C[C@H]2[C@@H](c3ccccc31)[C@H](CO)N2Cc1ccccc1Cl` the activity change, negative = cytotoxicity was -16.4% (inactive).

Same assay, conditions: A673 Ewing sarcoma viability, CellTiter-Glo ATP luminescence, 72 h; at 26 µM (top of the series)
With `COc1ccc(CNc2ncc(-c3ccc(F)cc3)n2C)c2ccccc12` the activity change, negative = cytotoxicity was 2.68% (inactive).
With `CCOC(=O)C1CCCCN1C(=O)CCc1c(C)nc2cc(-c3ccccc3)nn2c1C` (stereo not given) the activity change, negative = cytotoxicity was -3.12% (inactive).
With `COc1cc(OC)cc(-c2cc3nc(C)c(CCC(=O)O)c(C)n3n2)c1` the activity change, negative = cytotoxicity was 0.866% (inactive).
In the case of `O=C(NC(=O)c1ccccc1)Nc1ccccc1`, the activity change, negative = cytotoxicity is reported as -3.17% (inactive).
With `COc1ccc(-c2sc3ccccc3c2-c2ccc(OCCN3CCCCC3)cc2)cc1` the activity change, negative = cytotoxicity was -3.21% (inactive).
With `O=C(CN1C(=O)c2ccccc2S1(=O)=O)c1ccc(F)cc1` the activity change, negative = cytotoxicity was -6.39% (inactive).
With `O=C(NCCc1ccccc1)c1ccccc1NC(=O)C1CCCO1` (stereo not given) the activity change, negative = cytotoxicity was 0.338% (inactive).
In the case of `COc1ccc(Cl)cc1S(=O)(=O)Nc1ccc2c(c1)n(C)c(=O)n2C`, the activity change, negative = cytotoxicity is reported as -1.58% (inactive).
In the case of `CCNC(=O)[C@@H]1[C@@H](CO)[C@@H]2Cn3c(ccc(C4=CCCCC4)c3=O)[C@H]1N2CC`, the activity change, negative = cytotoxicity is reported as -1.43% (inactive).
With `CC(C)NC(=O)N(C)C[C@@H]1Oc2cc(C#Cc3ccc(F)cc3)ccc2S(=O)(=O)N([C@H](C)CO)C[C@H]1C` the activity change, negative = cytotoxicity was -18.2% (inactive).
With `Cc1cc(-c2nc3cc(F)ccc3s2)ccc1N` the activity change, negative = cytotoxicity was -13.6% (inactive).
For `CCN1CCN(/C=N/c2nc3c(s2)CCCC3)CC1`, the activity change, negative = cytotoxicity was -1.1% (inactive).
For `O=C1Nc2ccccc2C1=Nc1ccc(Br)cc1`, the activity change, negative = cytotoxicity was -3.12% (inactive).
In the case of `Cc1ccsc1/C=N/Nc1cccc(C(=O)O)c1`, the activity change, negative = cytotoxicity is reported as -8.75% (inactive).
With `COc1ccc(NC(=O)c2cc3ccccc3oc2=O)cc1` the activity change, negative = cytotoxicity was -20.8% (inactive).
In the case of `CCOc1ccc(C(c2c(NC(=O)c3ccccc3)sc(C)c2C)N2CCN(CCO)CC2)cc1` (stereo not given), the activity change, negative = cytotoxicity is reported as 9.4% (inactive).
In the case of `CC(C)c1ccccc1NC(=O)COC(=O)CCN1C(=O)/C(=C\C=C\c2ccccc2)SC1=S`, the activity change, negative = cytotoxicity is reported as -0.202% (inactive).
With `Nc1ccc(-c2cc3ccccc3oc2=O)cc1` the activity change, negative = cytotoxicity was 3.89% (inactive).
For `Cc1csc(NC(=O)CCc2c(C)nc3cc(-c4ccc(Cl)cc4)nn3c2C)n1`, the activity change, negative = cytotoxicity was 1.02% (inactive).
For `Cc1cc(C(=O)CN2C(=O)c3ccccc3S2(=O)=O)c(C)n1C(C)C`, the activity change, negative = cytotoxicity was 21.4% (inactive).
In the case of `S=C(NCCN1CCOCC1)Nc1ccccc1Cl`, the activity change, negative = cytotoxicity is reported as 3% (inactive).
In the case of `CCc1ccc(/C=C2\SC(=S)N(CCCC(=O)NC3=NCCS3)C2=O)cc1`, the activity change, negative = cytotoxicity is reported as 1.62% (inactive).
For `C/C=C/c1ccc([C@H]2[C@@H](CO)N3C(=O)CN(S(=O)(=O)c4cccc(F)c4)C[C@@H]23)cc1`, the activity change, negative = cytotoxicity was -5.5% (inactive).
In the case of `O=c1c2ccccc2oc2cc(C#CC3(O)CCCCC3)ccc12`, the activity change, negative = cytotoxicity is reported as 6.95% (inactive).
With `O=C(Nc1ccc(NC(=O)c2cc3ccccc3o2)cc1)c1ccc2c(c1)OCCO2` the activity change, negative = cytotoxicity was 7.76% (inactive).
For `CC(=O)Nc1ccc(S(=O)(=O)Nc2ccc(N3CCCCC3)cc2)cc1`, the activity change, negative = cytotoxicity was -16.3% (inactive).
For `CC(=O)c1ccc(N(C(=O)Cn2nnc3ccccc32)C(C(=O)NCc2ccccc2)c2ccccn2)cc1` (stereo not given), the activity change, negative = cytotoxicity was 3.66% (inactive).
In the case of `O=C(O)c1ccc(N/N=C/c2cc(Br)cs2)cc1`, the activity change, negative = cytotoxicity is reported as -5.62% (inactive).
With `COC(=O)C[C@@H]1CC[C@@H]2[C@@H](COc3ccc(NC(=O)Cc4cccs4)cc3C(=O)N2C)O1` the activity change, negative = cytotoxicity was -23.4% (inactive).
For `O=C(O)CN1C(=O)/C(=C\c2ccccc2OCc2ccc(Cl)cc2Cl)SC1=S`, the activity change, negative = cytotoxicity was -0.632% (inactive).
With `Cc1c(CC(=O)NCCCC(=O)O)c(=O)oc2cc3c(cc12)CCC(C)(C)O3` the activity change, negative = cytotoxicity was -4.88% (inactive).
For `COC(=O)c1cccc(NC(=O)NC(=O)c2ccccc2Cl)c1`, the activity change, negative = cytotoxicity was -9.77% (inactive).
With `O=C(C[C@@H]1CC[C@@H]2[C@H](COC[C@@H](O)CN2S(=O)(=O)c2ccc(F)cc2)O1)NCc1ccc(Cl)c(Cl)c1` the activity change, negative = cytotoxicity was 8.17% (inactive).
For `CC(C)(C)c1ccc(/C=N/Nc2ccc(C(=O)O)cc2)cc1`, the activity change, negative = cytotoxicity was -3.68% (inactive).
In the case of `COc1cc(/C=N/NS(=O)(=O)c2ccc(C)cc2)ccc1OCc1cccc(C(=O)O)c1`, the activity change, negative = cytotoxicity is reported as -3.14% (inactive).
With `COc1cc(/C=N/NS(=O)(=O)c2ccc3ccccc3c2)ccc1OCc1ccc(C(=O)O)cc1` the activity change, negative = cytotoxicity was 0.172% (inactive).
For `CN(C)C(=O)c1cccc(-c2ccc(C3[C@@H]4CN(Cc5nccs5)C[C@H]3N4)cc2)c1` (stereo not given in full), the activity change, negative = cytotoxicity was -4.24% (inactive).
In the case of `C/C(=N\N(c1ccccc1)c1ccccc1)c1ccco1`, the activity change, negative = cytotoxicity is reported as -1.2% (inactive).
With `COc1ccc(/C=C2\SC(=O)N(CCCC(=O)Nc3ccc(C(=O)O)cc3)C2=O)cc1` the activity change, negative = cytotoxicity was -0.477% (inactive).
In the case of `Nc1ccc2c(c1)OC1(CCCC1)O2`, the activity change, negative = cytotoxicity is reported as -14.9% (inactive).
For `C[C@@H]1CN([C@H](C)CO)C(=O)c2cc(NS(=O)(=O)c3ccc(Cl)cc3)ccc2O[C@@H]1CN(C)Cc1ccc(Cl)c(Cl)c1`, the activity change, negative = cytotoxicity was -17.2% (inactive).
In the case of `CCOC(=O)c1c(-c2ccc(C)cc2)csc1NC(=O)CCN1CCOCC1`, the activity change, negative = cytotoxicity is reported as 3.44% (inactive).
With `c1cncc(-c2ccc([C@@H]3[C@H]4CNC[C@@H]3N4CC3CCOCC3)cc2)c1` the activity change, negative = cytotoxicity was 9.2% (inactive).
With `O=C(CNC(=O)Cc1ccccc1)N=Nc1c(O)n(Cc2ccc3c(c2)OCO3)c2ccccc12` the activity change, negative = cytotoxicity was -1.52% (inactive).
For `C[C@H]1CN([C@@H](C)CO)C(=O)c2cc(NS(=O)(=O)c3ccc(Cl)cc3)ccc2O[C@H]1CN(C)Cc1ccc(Cl)c(Cl)c1`, the activity change, negative = cytotoxicity was 4.93% (inactive).
In the case of `CCCNC(=O)[C@@H]1[C@@H](CO)[C@@H]2Cn3c(ccc(-c4ccccc4)c3=O)[C@H]1N2C(=O)CC`, the activity change, negative = cytotoxicity is reported as 14.5% (inactive).
With `CCC(C)Cn1c(O)cc2nn(-c3nc4ccccc4s3)c(=O)c-2c1C` (stereo not given) the activity change, negative = cytotoxicity was -13.1% (inactive).
With `COc1cc(/C=N/NC(=O)c2csc3c2CCCC3)cc(OC)c1O` the activity change, negative = cytotoxicity was 0.143% (inactive).
With `Cc1cc2sc3ccc(C#CC4(O)CCCCC4)cc3c(=O)c2cc1C` the activity change, negative = cytotoxicity was -2.73% (inactive).
For `CC1(CCc2ccccc2)NC(=O)N(CC(=O)N2CC(=O)Nc3ccccc32)C1=O` (stereo not given), the activity change, negative = cytotoxicity was 7.32% (inactive).
In the case of `O=C(Nc1cccc(Oc2ccc3c(c2)C(=O)NC3=O)c1)c1cccs1`, the activity change, negative = cytotoxicity is reported as -6.77% (inactive).
For `Cc1ccsc1C(=O)OCC(=O)c1cc(C)n(C)c1C`, the activity change, negative = cytotoxicity was -0.814% (inactive).
For `C/C(=N\OCc1cccc(C(=O)O)c1)c1ccc(Cl)cc1`, the activity change, negative = cytotoxicity was -3.02% (inactive).
With `CCc1ccc(/C=C2\SC(=S)N(CCC(=O)Nc3cc(C)on3)C2=O)cc1` the activity change, negative = cytotoxicity was 6.27% (inactive).
With `Cc1nc2cc(-c3ccc(Cl)cc3)nn2c(C)c1CCC(=O)NC(C)c1ccc2c(c1)OCCO2` (stereo not given) the activity change, negative = cytotoxicity was -6% (inactive).
With `CCCn1nnc(NC(=S)NC(=O)C(C)(C)C)n1` the activity change, negative = cytotoxicity was -3.83% (inactive).
In the case of `COc1ccccc1NS(=O)(=O)c1cc(NC(=O)c2cc3ccccc3oc2=O)ccc1C`, the activity change, negative = cytotoxicity is reported as 13% (inactive).
For `CCOc1ccc(-c2cc(CCCC(=O)NCc3ccc(C)cc3)no2)cc1`, the activity change, negative = cytotoxicity was -9.1% (inactive).
In the case of `O=C(CCCCl)Nc1nc(-c2ccc3c(c2)OCCO3)cs1`, the activity change, negative = cytotoxicity is reported as 10.2% (inactive).
In the case of `COc1cccc(S(=O)(=O)N(C)C[C@H]2OCc3cnnn3CCCC(=O)N([C@@H](C)CO)C[C@H]2C)c1`, the activity change, negative = cytotoxicity is reported as 0.226% (inactive).
In the case of `CC(C)(C)C(=O)Nc1ccc(N=Nc2ccccc2)cc1`, the activity change, negative = cytotoxicity is reported as -13.9% (inactive).
For `CC1=NC(=O)C(N=Nc2cccc(C(=O)O)c2)N1c1ccccc1` (stereo not given), the activity change, negative = cytotoxicity was -2.93% (inactive).
For `C=CCOC(=O)c1sc(NC(=O)c2ccc(OC)cc2)nc1C`, the activity change, negative = cytotoxicity was -13% (inactive).
For `O=C(O)c1cccc(N/N=C/c2cccs2)c1`, the activity change, negative = cytotoxicity was -8.12% (inactive).
In the case of `Cc1ccc(Cc2c(-c3ccco3)nc3c(C)cc(Br)cn23)cc1`, the activity change, negative = cytotoxicity is reported as 2.77% (inactive).
For `COc1cc(OC)cc(-c2cc3nc(C)c(CCC(=O)NCc4ccccc4)c(C)n3n2)c1`, the activity change, negative = cytotoxicity was 6.68% (inactive).
In the case of `C[C@@H]1CN([C@@H](C)CO)C(=O)c2cccc(NC(=O)Nc3ccccc3)c2O[C@@H]1CN(C)Cc1ccc(-c2ccccc2)cc1`, the activity change, negative = cytotoxicity is reported as -1.33% (inactive).
In the case of `CCn1c(C)cc(C(=O)CN2C(=O)c3ccccc3S2(=O)=O)c1C`, the activity change, negative = cytotoxicity is reported as 9.42% (inactive).
In the case of `CN(C(=O)COC(=O)c1cc(-c2ccccc2Cl)nc2ccccc12)C1CCS(=O)(=O)C1` (stereo not given), the activity change, negative = cytotoxicity is reported as -1.76% (inactive).
For `COC(=O)c1cccc(NC(=O)NC(=O)c2ccc(Cl)cc2)c1`, the activity change, negative = cytotoxicity was -6.08% (inactive).
With `C[C@@H]1CN([C@@H](C)CO)C(=O)Cc2cc(NC(=O)Cn3cnnn3)ccc2O[C@@H]1CN(C)Cc1ccc(Oc2ccccc2)cc1` the activity change, negative = cytotoxicity was 8.72% (inactive).
In the case of `COc1ccccc1/C=C1\SC(=S)N(CCC(=O)Nc2cc(C)on2)C1=O`, the activity change, negative = cytotoxicity is reported as 6.59% (inactive).
With `CCc1ccc(Cn2ncc3c(C(=O)O)cc(C)nc32)cc1` the activity change, negative = cytotoxicity was 17.3% (inactive).
For `Cc1ccc(/C=N/Nc2ccc3ccccc3n2)o1`, the activity change, negative = cytotoxicity was -3.75% (inactive).
With `Cc1ccccc1N=CC1=C(O)c2ccccc2C1=O` the activity change, negative = cytotoxicity was -6.09% (inactive).
In the case of `C[C@@H]1CN([C@@H](C)CO)S(=O)(=O)c2ccc(C#Cc3ccncc3)cc2O[C@H]1CN(C)C(=O)C1CCOCC1`, the activity change, negative = cytotoxicity is reported as -7.5% (inactive).
With `C[C@@H]1CN([C@H](C)CO)C(=O)c2cc(NC(=O)CCCCCC(=O)Nc3ccccc3N)ccc2O[C@H]1CN(C)S(=O)(=O)c1ccc(Cl)cc1` the activity change, negative = cytotoxicity was -2.24% (inactive).
With `CC(C)(C)c1ccc(Oc2ccc(NC(=O)C3CC=CCC3C(=O)O)cc2)cc1` (stereo not given) the activity change, negative = cytotoxicity was 6.05% (inactive).
For `O=C(Nc1ccc(OC(=O)N2CCCCC2)cc1)N1CCOCC1`, the activity change, negative = cytotoxicity was 1.28% (inactive).
